The experiment has as its system thoracic aorta. Nature of the experiment: Vasorelaxant effect on isolated vessels (rat thoracic aorta rings without endothelium, precontracted with noradrenalin). Set-up: species or system Wistar rats. Summed up: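 Endothelium-denuded thoracic aorta rings from Wistar rats, held in Krebs-Ringer buffer (pH 7.4, 37 °C, 95% O2/5% CO2) under isometric tension and precontracted with 10^-7 M noradrenalin, received cumulative compound (10^-8 to 10^-4 M). Maximum relaxation given as percent; IC50 calculated when relaxation exceeded 50%.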

Structures are written as SMILES. Counter-ions that a name gives are not always drawn.

Here are results for 1 molecule from US5591758A, “Organic nitrates, processes for their preparation and their use in the treatment of cardiovascular diseases” (Laboratoires Hoechst, SA, priority 1991, dated 1997).

In general, IC50 refers to the concentration at which inhibition is half-maximal. High values mean a need for much substance, low ones inhibition by little substance.

For `O=C(CNC(=O)[C@@H]1CSCN1)N[C@H]1CO[C@H]2[C@@H]1OC[C@@H]2O[N+](=O)[O-]` [Compound 46, 5-[[2-[[(4-L-Thiazolidinyl)carbonyl]amino]-1oxoethyl]amino]-5-deoxy-2-O-nitro-1,4:3,6-dianhydro-L-iditol monohydrochloride], the Emax (Rattus norvegicus, maximum inhibition of noradrenalin effect, 10^-8 to 10^-4 M substance, read-out: Maximum Relaxation) came to 50%. Further, under “rat aorta, 10^-7 M noradrenalin contraction”, inhibition was half-maximal at 100 µM (IC50).
